Results: patent US11872262B2, “Means and methods for treating bacterial infections” (VIB VZW, priority 2017, dated 2024)
Residues, ends and D or L forms follow the SMILES beside them.

Test system: E. coli O157:H7
Format: cell-based, Escherichia coli
Conditions: screening-stage peptides tested at 1, 6, 12 and 25 μg/mL
From the text: In the present invention we used the statistical thermodynamics algorithm TANGO to identify aggregation prone regions (APR) in the proteome of E. coli strain O157:H7. This yielded 3535 sequences of at least 6 amino acids in length and a TANGO score of at least 20%. In order to generate efficient aggregation seeds, we employed a previously devised tandem repeat design ^19, 21, in which the APRs are repeated once and separated by a linker. Given the length limitation on solid phase peptide synthesis with regard to yield and purity, we focused on the 1542 APRs with a length of 7 amino acids. In order to maximize the potential of these peptides to induce aggregation in E. coli, we ranked the APRs by their frequency of occurrence throughout the E. coli proteome, allowing a single amino acid mismatch, and selected the first 75 most frequently occurring sequences from this list (Table 4). In the design pattern, and in order to increase the colloidal stability of these aggregating peptides, the APRs are flanked by aggregation gatekeepers, a class of residues that was previously shown to reduce aggregation kinetics^22-24. […] To generate the tandem we used a single proline residue as a linker between the gatekeeper-flanked APRs. In addition to the 75 peptides generated in this fashion, we added 2 variants of each of the first 25 peptides in the list by randomly mutating one residue in the first APR repeat to arginine to further modulate the aggregation propensity of the peptides (Table 4). All the peptides were generated using solid phase synthesis at 200 nmole scale and dissolved in DMSO to a theoretical stock concentration of 2 mM (assuming 100% synthesis efficiency). Peptide activity on the growth of E. coli O157:H7 was measured at dilutions of the peptide corresponding to concentrations of 1, 6, 12 and 25 μg/mL. […] The Matthews Correlations Coefficient (MCC) with the measured activity was 0.1 at 12 μg/mL and 0.24 at 25 μg/mL.

SMILES	E. coli O157 (apparent MIC in screen)
CC[C@H](C)[C@H](NC(=O)CNC(=O)[C@H](CCCNC(=N)N)NC(=O)[C@H](CC(C)C)NC(=O)[C@@H](N)CCCNC(=N)N)C(=O)N[C@@H](C)C(=O)N[C@@H](CC(C)C)C(=O)NCC(=O)N[C@@H](CCCNC(=N)N)C(=O)N[C@@H](CCCNC(=N)N)C(=O)N1CCC[C@H]1C(=O)N[C@@H](CCCNC(=N)N)C(=O)N[C@@H](CC(C)C)C(=O)N[C@H](C(=O)NCC(=O)N[C@H](C(=O)N[C@@H](C)C(=O)N[C@@H](CC(C)C)C(=O)NCC(=O)N[C@@H](CCCNC(=N)N)C(=O)N[C@@H](CCCNC(=N)N)C(=O)O)[C@@H](C)CC)[C@@H](C)CC [Peptide P90] (H-RLRGIALGRRPRLIGIALGRR-OH; N-terminus and C-terminus assumed)	25 µg/mL
CC(C)C[C@H](NC(=O)[C@H](C)NC(=O)[C@@H](N)CCCNC(=N)N)C(=O)N[C@@H](CC(C)C)C(=O)N[C@H](C(=O)N[C@@H](C)C(=O)N[C@@H](CCCNC(=N)N)C(=O)N[C@@H](CC(C)C)C(=O)N[C@@H](CCCNC(=N)N)C(=O)N[C@@H](CCCNC(=N)N)C(=O)N1CCC[C@H]1C(=O)N[C@@H](CCCNC(=N)N)C(=O)N[C@@H](C)C(=O)N[C@@H](CC(C)C)C(=O)N[C@@H](CC(C)C)C(=O)N[C@H](C(=O)N[C@@H](C)C(=O)N[C@H](C(=O)N[C@@H](CC(C)C)C(=O)N[C@@H](CCCNC(=N)N)C(=O)N[C@@H](CCCNC(=N)N)C(=O)O)C(C)C)[C@@H](C)O)[C@@H](C)O [Peptide P91] (H-RALLTARLRRPRALLTAVLRR-OH; N-terminus and C-terminus assumed)	25 µg/mL
CC(C)C[C@H](NC(=O)[C@H](C)NC(=O)[C@@H](NC(=O)[C@H](CC(C)C)NC(=O)[C@H](CCC(N)=O)NC(=O)[C@H](CCCNC(=N)N)NC(=O)[C@@H]1CCCN1C(=O)[C@H](CCCNC(=N)N)NC(=O)[C@H](CCCNC(=N)N)NC(=O)[C@@H](NC(=O)[C@H](CC(C)C)NC(=O)[C@H](CCCNC(=N)N)NC(=O)[C@H](C)NC(=O)[C@@H](NC(=O)[C@H](CC(C)C)NC(=O)[C@H](CCC(N)=O)NC(=O)[C@@H](N)CCCNC(=N)N)C(C)C)C(C)C)C(C)C)C(=O)N[C@@H](CC(C)C)C(=O)N[C@H](C(=O)N[C@@H](CCCNC(=N)N)C(=O)N[C@@H](CCCNC(=N)N)C(=O)O)C(C)C [Peptide P92] (H-RQLVARLVRRPRQLVALLVRR-OH; N-terminus and C-terminus assumed)	6 µg/mL
CC(C)C[C@H](NC(=O)[C@H](C)NC(=O)[C@H](CC(C)C)NC(=O)[C@@H](NC(=O)[C@H](C)NC(=O)[C@H](CO)NC(=O)[C@H](CCCNC(=N)N)NC(=O)[C@@H]1CCCN1C(=O)[C@H](CCCNC(=N)N)NC(=O)[C@H](CCCNC(=N)N)NC(=O)[C@H](CC(C)C)NC(=O)[C@H](CC(C)C)NC(=O)[C@H](C)NC(=O)[C@H](CC(C)C)NC(=O)[C@H](CCCNC(=N)N)NC(=O)[C@H](C)NC(=O)[C@H](CO)NC(=O)[C@@H](N)CCCNC(=N)N)C(C)C)C(=O)N[C@@H](CC(C)C)C(=O)N[C@@H](CCCNC(=N)N)C(=O)N[C@@H](CCCNC(=N)N)C(=O)O [Peptide P93] (H-RSARLALLRRPRSAVLALLRR-OH; N-terminus and C-terminus assumed)	25 µg/mL
CC(C)C[C@H](NC(=O)CNC(=O)[C@H](CCCNC(=N)N)NC(=O)[C@@H]1CCCN1C(=O)[C@H](CCCNC(=N)N)NC(=O)[C@H](CCCNC(=N)N)NC(=O)[C@H](CCC(N)=O)NC(=O)[C@H](CC(C)C)NC(=O)[C@H](C)NC(=O)[C@H](CC(C)C)NC(=O)[C@H](CCCNC(=N)N)NC(=O)[C@H](CC(C)C)NC(=O)CNC(=O)[C@@H](N)CCCNC(=N)N)C(=O)N[C@@H](CC(C)C)C(=O)N[C@@H](CC(C)C)C(=O)N[C@@H](C)C(=O)N[C@@H](CC(C)C)C(=O)N[C@@H](CCC(N)=O)C(=O)N[C@@H](CCCNC(=N)N)C(=O)N[C@@H](CCCNC(=N)N)C(=O)O [Peptide P99] (H-RGLRLALQRRPRGLLLALQRR-OH; N-terminus and C-terminus assumed)	25 µg/mL
CC(C)C[C@H](NC(=O)[C@H](CC(C)C)NC(=O)[C@H](CC(C)C)NC(=O)[C@H](CCCNC(=N)N)NC(=O)[C@@H]1CCCN1C(=O)[C@H](CCCNC(=N)N)NC(=O)[C@H](CCCNC(=N)N)NC(=O)[C@@H](NC(=O)[C@H](CC(C)C)NC(=O)[C@H](CC(C)C)NC(=O)[C@H](CO)NC(=O)[C@H](CCCNC(=N)N)NC(=O)[C@H](CC(C)C)NC(=O)[C@H](CC(C)C)NC(=O)[C@@H](N)CCCNC(=N)N)C(C)C)C(=O)N[C@@H](CO)C(=O)N[C@@H](CC(C)C)C(=O)N[C@@H](CC(C)C)C(=O)N[C@H](C(=O)N[C@@H](CCCNC(=N)N)C(=O)N[C@@H](CCCNC(=N)N)C(=O)O)C(C)C [Peptide P101] (H-RLLRSLLVRRPRLLLSLLVRR-OH; N-terminus and C-terminus assumed)	12 µg/mL
CC(C)C[C@H](NC(=O)[C@H](C)NC(=O)[C@H](CC(C)C)NC(=O)[C@H](CC(C)C)NC(=O)[C@H](CC(C)C)NC(=O)[C@H](CCCNC(=N)N)NC(=O)[C@@H]1CCCN1C(=O)[C@H](CCCNC(=N)N)NC(=O)[C@H](CCCNC(=N)N)NC(=O)[C@H](CO)NC(=O)[C@H](CCCNC(=N)N)NC(=O)[C@H](CC(C)C)NC(=O)[C@H](C)NC(=O)[C@H](CC(C)C)NC(=O)[C@H](CC(C)C)NC(=O)[C@H](CC(C)C)NC(=O)[C@@H](N)CCCNC(=N)N)C(=O)N[C@@H](CC(C)C)C(=O)N[C@@H](CO)C(=O)N[C@@H](CCCNC(=N)N)C(=O)N[C@@H](CCCNC(=N)N)C(=O)O [Peptide P103] (H-RLLLALRSRRPRLLLALLSRR-OH; N-terminus and C-terminus assumed)	25 µg/mL
CC(C)C[C@H](NC(=O)[C@H](C)NC(=O)[C@@H](N)CCCNC(=N)N)C(=O)N[C@@H](CC(C)C)C(=O)N[C@@H](CCCNC(=N)N)C(=O)N[C@H](C(=O)N[C@@H](CC(C)C)C(=O)N[C@@H](CC(C)C)C(=O)N[C@@H](CCCNC(=N)N)C(=O)N[C@@H](CCCNC(=N)N)C(=O)N1CCC[C@H]1C(=O)N[C@@H](CCCNC(=N)N)C(=O)N[C@@H](C)C(=O)N[C@@H](CC(C)C)C(=O)N[C@@H](CC(C)C)C(=O)N[C@H](C(=O)N[C@H](C(=O)N[C@@H](CC(C)C)C(=O)N[C@@H](CC(C)C)C(=O)N[C@@H](CCCNC(=N)N)C(=O)N[C@@H](CCCNC(=N)N)C(=O)O)[C@@H](C)O)[C@@H](C)O)[C@@H](C)O [Peptide P105] (H-RALLRTLLRRPRALLTTLLRR-OH; N-terminus and C-terminus assumed)	6 µg/mL
CC(C)C[C@H](NC(=O)[C@H](C)NC(=O)[C@H](CC(C)C)NC(=O)[C@@H](NC(=O)[C@H](CCCNC(=N)N)NC(=O)[C@@H]1CCCN1C(=O)[C@H](CCCNC(=N)N)NC(=O)[C@H](CCCNC(=N)N)NC(=O)[C@H](CC(C)C)NC(=O)[C@H](C)NC(=O)[C@H](CCCNC(=N)N)NC(=O)[C@H](CC(C)C)NC(=O)[C@H](C)NC(=O)[C@H](CC(C)C)NC(=O)[C@@H](NC(=O)[C@@H](N)CCCNC(=N)N)C(C)C)C(C)C)C(=O)N[C@@H](C)C(=O)N[C@@H](C)C(=O)N[C@@H](CC(C)C)C(=O)N[C@@H](CCCNC(=N)N)C(=O)N[C@@H](CCCNC(=N)N)C(=O)O [Peptide P111] (H-RVLALRALRRPRVLALAALRR-OH; N-terminus and C-terminus assumed)	25 µg/mL
CC(C)C[C@H](NC(=O)[C@H](C)NC(=O)[C@@H](N)CCCNC(=N)N)C(=O)N[C@@H](C)C(=O)N[C@@H](CCCNC(=N)N)C(=O)N[C@@H](C)C(=O)N[C@@H](CC(C)C)C(=O)N[C@@H](CC(C)C)C(=O)N[C@@H](CCCNC(=N)N)C(=O)N[C@@H](CCCNC(=N)N)C(=O)N1CCC[C@H]1C(=O)N[C@@H](CCCNC(=N)N)C(=O)N[C@@H](C)C(=O)N[C@@H](CC(C)C)C(=O)N[C@@H](C)C(=O)N[C@H](C(=O)N[C@@H](C)C(=O)N[C@@H](CC(C)C)C(=O)N[C@@H](CC(C)C)C(=O)N[C@@H](CCCNC(=N)N)C(=O)N[C@@H](CCCNC(=N)N)C(=O)O)C(C)C [Peptide P112] (H-RALARALLRRPRALAVALLRR-OH; N-terminus and C-terminus assumed)	25 µg/mL
CC(C)C[C@H](NC(=O)CNC(=O)[C@H](CC(C)C)NC(=O)[C@@H](NC(=O)[C@H](C)NC(=O)[C@H](CCCNC(=N)N)NC(=O)[C@@H]1CCCN1C(=O)[C@H](CCCNC(=N)N)NC(=O)[C@H](CCCNC(=N)N)NC(=O)[C@H](C)NC(=O)[C@H](CC(C)C)NC(=O)[C@H](CC(C)C)NC(=O)[C@H](CCCNC(=N)N)NC(=O)[C@H](CC(C)C)NC(=O)[C@@H](NC(=O)[C@H](C)NC(=O)[C@@H](N)CCCNC(=N)N)C(C)C)C(C)C)C(=O)N[C@@H](CC(C)C)C(=O)N[C@@H](C)C(=O)N[C@@H](CCCNC(=N)N)C(=O)N[C@@H](CCCNC(=N)N)C(=O)O [Peptide P113] (H-RAVLRLLARRPRAVLGLLARR-OH; N-terminus and C-terminus assumed)	25 µg/mL
